Measurements published in ChEMBL document CHEMBL1159136, “Dipeptide mimetics can substitute for the receptor activation domain resulting in highly potent analogues of hPTH(136)” (Bioorg Med Chem Lett, 1996).
Square brackets hold non-standard residues; d marks the D form. Peptide text beside a SMILES is read from it. NMeV = CN[C@H](C(=O)O)C(C)C; N(iPr)Gly = CC(C)NCC(=O)O; NMeA = CN[C@@H](C)C(=O)O

Key:
OK-1 [1] = assay: Accumulation of cyclic AMP in OK-1 cells.; type: functional, cell-based, opossum; conditions: opossum, OK-1
UMR106-06 [2] = assay: Compound was evaluated for the accumulation of cyclic AMP in UMR10606 (rat osteosarcoma) cells.; type: functional, cell-based; conditions: Rattus norvegicus, UMR106-06
OK-1 [3] = assay: Compound was evaluated for the intrinsic activity for accumulation of cyclic AMP in OK-1 cells.; type: functional, opossum
UMR106-06 [4] = assay: Compound was evaluated for the intrinsic activity for accumulation of cyclic AMP in UMR10606 (rat osteosarcoma) cells.; type: functional
OK-1 [5] = assay: Displacement of [125I]-chick PTHrP-(1-36)-NH2 from opossum (OK-1) kidney cells; type: functional

| EC50 (OK-1 [1]) [nM] | EC50 (UMR106-06 [2]) [nM] | Structure (SMILES) | Intrinsic activity (OK-1 [3]) | Intrinsic activity (UMR106-06 [4]) | pKD (OK-1 [5]) |
| --- | --- | --- | --- | --- | --- |
| 97.2 | 30 | CC[C@H](C)[C@H](NC(=O)[C@H](CCC(=O)O)NC(=O)[C@H](CO)NC(=O)CN(C(=O)[C@H](C)N)C(C)C)C(=O)N[C@@H](CCC(N)=O)C(=O)N[C@@H](CC(C)C)C(=O)N[C@@H](CCSC)C(=O)N[C@@H](Cc1c[nH]cn1)C(=O)N[C@@H](CC(N)=O)C(=O)N[C@@H](CC(C)C)C(=O)NCC(=O)N[C@@H](CCCCN)C(=O)N[C@@H](Cc1c[nH]cn1)C(=O)N[C@@H](CC(C)C)C(=O)N[C@@H](CC(N)=O)C(=O)N[C@@H](CO)C(=O)N[C@@H](CCSC)C(=O)N[C@@H](CCC(=O)O)C(=O)N[C@@H](CCCN=C(N)N)C(=O)N[C@H](C(=O)N[C@@H](CCC(=O)O)C(=O)N[C@@H](Cc1c[nH]c2ccccc12)C(=O)N[C@@H](CC(C)C)C(=O)N[C@@H](CCCN=C(N)N)C(=O)N[C@@H](CCCCN)C(=O)N[C@@H](CCCCN)C(=O)N[C@@H](CC(C)C)C(=O)N[C@@H](CCC(N)=O)C(=O)N[C@@H](CC(=O)O)C(=O)N[C@H](C(=O)N[C@@H](Cc1c[nH]cn1)C(=O)N[C@@H](CC(N)=O)C(=O)N[C@@H](Cc1ccccc1)C(=O)N[C@H](C(=O)N[C@@H](C)C(N)=O)C(C)C)C(C)C)C(C)C (H-A[N(iPr)Gly]SEIQLMHNLGKHLNSMERVEWLRKKLQDVHNFVA-NH2) | 0.5 | 0.05 | 7.4 |
| 3.5 | 4.4 | CC[C@H](C)[C@H](NC(=O)[C@H](CCC(=O)O)NC(=O)[C@H](CO)NC(=O)[C@H](C(C)C)N(C)C(=O)[C@H](C)N)C(=O)N[C@@H](CCC(N)=O)C(=O)N[C@@H](CC(C)C)C(=O)N[C@@H](CCSC)C(=O)N[C@@H](Cc1c[nH]cn1)C(=O)N[C@@H](CC(N)=O)C(=O)N[C@@H](CC(C)C)C(=O)NCC(=O)N[C@@H](CCCCN)C(=O)N[C@@H](Cc1c[nH]cn1)C(=O)N[C@@H](CC(C)C)C(=O)N[C@@H](CC(N)=O)C(=O)N[C@@H](CO)C(=O)N[C@@H](CCSC)C(=O)N[C@@H](CCC(=O)O)C(=O)N[C@@H](CCCN=C(N)N)C(=O)N[C@H](C(=O)N[C@@H](CCC(=O)O)C(=O)N[C@@H](Cc1c[nH]c2ccccc12)C(=O)N[C@@H](CC(C)C)C(=O)N[C@@H](CCCN=C(N)N)C(=O)N[C@@H](CCCCN)C(=O)N[C@@H](CCCCN)C(=O)N[C@@H](CC(C)C)C(=O)N[C@@H](CCC(N)=O)C(=O)N[C@@H](CC(=O)O)C(=O)N[C@H](C(=O)N[C@@H](Cc1c[nH]cn1)C(=O)N[C@@H](CC(N)=O)C(=O)N[C@@H](Cc1ccccc1)C(=O)N[C@H](C(=O)N[C@@H](C)C(N)=O)C(C)C)C(C)C)C(C)C (H-A[NMeV]SEIQLMHNLGKHLNSMERVEWLRKKLQDVHNFVA-NH2) | 1 | 0.9 | 8.4 |
| 6.5 | 4.9 | CC[C@H](C)[C@H](NC(=O)[C@H](CCC(=O)O)NC(=O)[C@H](CO)NC(=O)[C@H](C(C)C)N(C)C(=O)[C@H](C)NC)C(=O)N[C@@H](CCC(N)=O)C(=O)N[C@@H](CC(C)C)C(=O)N[C@@H](CCSC)C(=O)N[C@@H](Cc1c[nH]cn1)C(=O)N[C@@H](CC(N)=O)C(=O)N[C@@H](CC(C)C)C(=O)NCC(=O)N[C@@H](CCCCN)C(=O)N[C@@H](Cc1c[nH]cn1)C(=O)N[C@@H](CC(C)C)C(=O)N[C@@H](CC(N)=O)C(=O)N[C@@H](CO)C(=O)N[C@@H](CCSC)C(=O)N[C@@H](CCC(=O)O)C(=O)N[C@@H](CCCN=C(N)N)C(=O)N[C@H](C(=O)N[C@@H](CCC(=O)O)C(=O)N[C@@H](Cc1c[nH]c2ccccc12)C(=O)N[C@@H](CC(C)C)C(=O)N[C@@H](CCCN=C(N)N)C(=O)N[C@@H](CCCCN)C(=O)N[C@@H](CCCCN)C(=O)N[C@@H](CC(C)C)C(=O)N[C@@H](CCC(N)=O)C(=O)N[C@@H](CC(=O)O)C(=O)N[C@H](C(=O)N[C@@H](Cc1c[nH]cn1)C(=O)N[C@@H](CC(N)=O)C(=O)N[C@@H](Cc1ccccc1)C(=O)N[C@H](C(=O)N[C@@H](C)C(N)=O)C(C)C)C(C)C)C(C)C (H-[NMeA][NMeV]SEIQLMHNLGKHLNSMERVEWLRKKLQDVHNFVA-NH2) | 1 | 1 | 8.5 |
